Measurements taken from US20220288048A1, “PIMAVANSERIN FOR TREATING SCHIZOPHRENIA OR FOR TREATING PSYCHOSIS SECONDARY TO NEURODEGENERATIVE DISORDERS OR DEPRESSIVE DISORDER” (ACADIA Pharmaceuticals Inc., priority 2019, published 2022).

System: adult schizophrenia patients with a persistent inadequate response to their existing antipsychotic therapy
Experiment: 6-week study of pimavanserin or placebo added to existing antipsychotic treatment: efficacy rating scales
Type: in vivo, human
Set-up: key to Marder Disorg, LSM Change from Baseline at W6 / Marder Uncntl, LSM Change from Baseline at W6 / Marder AnxDep, LSM Change from Baseline at W6: PANSS factor score points; PANSS items rated on a 7-point scale; CGI-I, LSM at W6 (column head: Change from Baseline at W6) / DAI-10, LSM Change from Baseline at W6 / KSS, LSM Change from Baseline at W6 / CDSS, LSM Change from Baseline at W6 / SF36 MH, LSM Change from Baseline at W6: scale not given here
Description: The effect of pimavanserin as an adjunctive treatment in adult schizophrenia patients with a persistent inadequate response (i.e., partial responders) to their existing antipsychotic therapy was tested. 396 patients with moderate-to-severe psychotic symptoms were randomized to receive either pimavanserin or placebo added to existing antipsychotic treatment. […] Dosages of background oral antipsychotics could not be changed within four weeks of screening and dosages of long-acting injectables (LAI) could not be changed within 16 weeks of screening. […] Patients were administered a daily dose of pimavanserin or a placebo for six weeks. The dose started at 20 mg and could be adjusted to 34 mg or 10 mg between weeks 1 and 3. The majority of patients (56%) completed the study at the highest dose level. Patients were evaluated at baseline and on a weekly basis according to the clinical rating scale Positive and Negative Symptom Scale (PANSS). The PANSS is a 30-item, 7-point rating system that was developed to cover a range of negative symptoms not adequately measured by the Brief Psychiatric Rating Scale. It has sections that specifically measure positive symptoms, negative symptoms, and general psychopathology in schizophrenic subjects. The PANSS is widely used in trials of antipsychotic drug treatment, and has been formally validated for such use. A subset of 5 of the PANSS factors, the […] factors, were also evaluated. Other clinical rating scales that were assessed were the Clinical Global Impression Scale (CGI), Personal and Social Performance Scale (PSP), drug attitude inventory (DAI-10), Karolinska Sleepiness Scale (KSS), Calgary Depression Scale for Schizophrenia (CDSS), 36-item Short Form Physical Health evaluation ([…]) and 36-item Short Form Mental Health evaluation […].

[1] = European sites subgroup, Week 6
[2] = European sites subgroup, Week 6, listed as pimavanserin
[3] = FAS population, W6, Missing as Worsen

## CC(C)COc1ccc(CNC(=O)N(Cc2ccc(F)cc2)C2CCN(C)CC2)cc1 [Pimavanserin, N-(4-Fluorophenylmethyl)-N-(1-methylpiperidin-4-yl)-N′-(4-(2-methylpropyloxy)phenylmethyl)carbamide]
Europe subgroup
  PANSS Negative Symptoms Subscale, LS Mean Change at Week 6: −2.9
  PANSS Positive Symptoms Subscale, LS Mean Change at Week 6: −5.5
Europe subgroup, Week 6
  PANSS Negative Symptoms Subscale, Cohen's d Effect Size: 0.296
  PANSS Negative Symptoms Subscale, LS Mean (SE) Difference: −1.1
  PANSS Positive Symptoms Subscale, Cohen's d Effect Size: 0.195
  PANSS Positive Symptoms Subscale, LS Mean (SE) Difference: −0.8 (0.49)
European sites subgroup
  CGI-S score, Change from Baseline to Week 6, Mean (SE): −0.8 (0.07)
  CGI-S score, Week 6, Mean (SE): 3.8 (0.08)
  PANSS total score, Change from Baseline to Week 6, Mean (SE): −16.0 (1.06)
  PANSS total score, Week 6, Mean (SE): 73.2 (1.18)
[1]
  CGI-S score, Diff in MMRM LSM (SE), pimavanserin − placebo: −0.2 (0.09)
  CGI-S score, Effect Size (Cohen's d): 0.266
  PANSS total score, Diff in MMRM LSM (SE), pimavanserin − placebo: −3.1 (1.37)
  PANSS total score, Effect Size (Cohen's d): 0.261
[2]
  CGI-S score, Diff in MMRM LSM (SE), pimavanserin − placebo: −0.2
  PANSS total score, Diff in MMRM LSM (SE), pimavanserin − placebo: −3.1
FAS Population, OC, ANCOVA
  CDSS, LSM Change from Baseline at W6: −0.6
  DAI-10, LSM Change from Baseline at W6: 0.4
  PSP, LSM Change from Baseline at W6: 6.9
  SF36 MH, LSM Change from Baseline at W6: 5.6
  SF36 PH, LSM Change from Baseline at W6: 0.46
FAS Population, OC, ANCOVA, W6
  CDSS, Effect Size: 0.09
  CDSS, Treatment group Comparison (PIM-PBO) LSM: −0.2
  DAI-10, Effect Size: Neg
  DAI-10, Treatment group Comparison (PIM-PBO) LSM: −0.0
  PSP, Effect Size: 0.15
  PSP, Treatment group Comparison (PIM-PBO) LSM: 1.3
  SF36 MH, Effect Size: 0.11
  SF36 MH, Treatment group Comparison (PIM-PBO) LSM: 1.0
  SF36 PH, Effect Size: 0.00
  SF36 PH, Treatment group Comparison (PIM-PBO) LSM: 0.0
FAS Population, OC, MMRM
  CGI-I, LSM at W6 (column head: Change from Baseline at W6): 2.9
  KSS, LSM Change from Baseline at W6: −0.5
  Marder AnxDep, LSM Change from Baseline at W6: −2.3
  Marder Disorg, LSM Change from Baseline at W6: −2.5
  Marder Pos, LSM Change from Baseline at W6: −5.5
  Marder Uncntl, LSM Change from Baseline at W6: −1.7
  PANSS GenPsy, LSM Change from Baseline at W6: −7.2
  PANSS Pos, LSM Change from Baseline at W6: −5.4
FAS Population, OC, MMRM, W6
  CGI-I, Effect Size: 0.08
  CGI-I, Treatment group Comparison (PIM-PBO) LSM: −0.1
  KSS, Effect Size: 0.23
  KSS, Treatment group Comparison (PIM-PBO) LSM: −0.3
  Marder AnxDep, Effect Size: 0.02
  Marder AnxDep, Treatment group Comparison (PIM-PBO) LSM: −0.0
  Marder Disorg, Effect Size: 0.18
  Marder Disorg, Treatment group Comparison (PIM-PBO) LSM: −0.5
  Marder Pos, Effect Size: 0.16
  Marder Pos, Treatment group Comparison (PIM-PBO) LSM: −0.8
  Marder Uncntl, Effect Size: 0.01
  Marder Uncntl, Treatment group Comparison (PIM-PBO) LSM: −0.0
  PANSS GenPsy, Effect Size: 0.12
  PANSS GenPsy, Treatment group Comparison (PIM-PBO) LSM: −0.8
  PANSS Pos, Effect Size: 0.12
  PANSS Pos, Treatment group Comparison (PIM-PBO) LSM: −0.5
[3]
  CGI-I no Chg or Worsened, (%): (34.7) %
  CGI-I no Chg or Worsened, Diff in % (PIM − PBO): 4.1%
